Measurements as given in patent US20200164005A1, “PHARMACEUTICAL COMPOSITIONS OF A BILE ACID DERIVATIVE AND MICROBIOME AND USES THEREOF” (Intercept Pharmaceuticals, Inc., priority 2017, published 2020).

Columns and labels:
[1] = test system: KEGG pathways of the gut microbiome; assay: KEGG pathway differential abundance analysis of stool metagenome; type: in vivo, human; set-up: key to * (direction of KEGG pathway change): “↑” means the pathway is up-regulated on day 16; “↓” means the pathway is down-regulated on day 16; conditions: for * (direction of KEGG pathway change): KEGG pathway of the table row, day 16
Excerpt: HUMAnN2 (Abubucker et al., PLoS Comput. Biol. 8, e1002358 (2012)) was used to calculate gene and pathway abundance from metagenomic sequencing data. Uniref50 (UniProt® Consortium, Nucleic Acids Res. 43, D204 (2015)) was used for gene family definition. MetaCyc (Caspi et al., Nucleic Acids Res. 42, D459 (2014)) and KEGG (Kanehisa and Goto, Nucleic Acids Res. 28, 27 (2000); Kanehisa et al., Nucleic Acids Res. 44, D457 (2016)) were used for pathway analysis. • Gene family identification: Initially, 989251 gene families were identified from the dataset by HUMAnN2. Quantile normalization was implemented. For each sample, the RPK values were added up till 90% percentile of all genes (normalization factor, nf). RPK value of each gene in each sample was then divided by the nf of the sample, and multiplied with the mean of nf of all samples. 683270 uncharacterized genes were removed. Genes undetected in over 90% of samples (101994) were removed. 203987 genes were kept. Due to the large number of genes identified, 25% of the most varying genes were selected for further analysis. The most varying genes were defined by the coefficient variation (cv=sd/mean) of log 2 transformed value. • MetaCyc pathway identification: HUMAnN2 identified 567 MetaCyc pathways from the dataset. Quantile normalization was then performed. For each sample, the abundance values were added up till 90% percentile of all pathways (normalization factor, nf). Each pathway abundance in each sample was divided by the nf of the sample, and then multiplied with the mean of nf for all samples. The low abundance pathways (52), which were not detected on over 90% of all samples, were removed. 515 high quality MetaCyc pathways were kept for further analysis. • KEGG pathway identification: HUMAnN2 identified 160 KEGG pathways from the dataset. Quantile normalization was applied, and low abundance pathways were removed. 66 high quality KEGG pathways were kept for further analysis.
gene abundance˜aov(day*OCAdose+error(subject ID)) • Pathway differential abundance analysis: For each of the identified pathways, repeated measure ANOVA was also performed to study the time effect and OCA dose effect on pathway abundance change.
pathway abundance˜aov(day*OCAdose+error(subject ID)) • FGF19 analysis: The GEE model was applied in order to study the relationship of FGF19 change with the microbiome, gene family, and the pathway abundance change over time. The R function geeglm from R package geepack was used for gee modeling. Both FGF19 level and species/gene/pathway relative abundance were log 2 transformed before applying GEE model.

[2] = Calculated small intestinal luminal concentration of OCA; set-up: species or system human

SMILES: CC[C@H]1[C@@H](O)[C@@H]2[C@H](CC[C@]3(C)[C@@H]([C@H](C)CCC(=O)O)CC[C@@H]23)[C@@]2(C)CC[C@@H](O)C[C@@H]12 [OCA, 3α,7α-dihydroxy-6α-ethyl-5β-cholan-24-oic acid]
- * (direction of KEGG pathway change) ([1]; Fatty acid biosynthesis): ↓
- * (direction of KEGG pathway change) ([1]; Purine metabolism): ↑
- number of KEGG pathways differentially abundant over time ([1]; of 66, FDR<0.05 for time effect): 26
- OCA dose effect on KEGG pathway abundance ([1]; repeated measure ANOVA, FDR<0.05): No OCA dose or dose×day interaction was observed
- calculated physiologic level that would be encountered in the human small intestine [2]: approximately 12 micromolar
